In patent publication US10781215B2, “Heterobicyclic compounds useful as modulators of IL-12, IL-23 and/or IFNα responses” (BRISTOL-MYERS SQUIBB COMPANY, priority 2016, dated 2020):

Legend:
[1] = biological target: T1, human Tyk2 (amino acids 575-869, His-tagged) (Homo sapiens, UniProt P29597); assay: Probe displacement assay (SPA format); format: binding; conditions: radiolabeled probe 40 nM, Tyk2 2.5 nM
T1 construct: made in house
Description: Probe Displacement Assay (SPA Format) The probe displacement assay is conducted as follows: In a […], test compounds along with recombinantly expressed His-tagged protein corresponding to amino acids 575-869 of human Tyk2 (sequence shown below) at 2.5 nM, 40 nM ((R)—N-(1-(3-(8-methyl-5-(methylamino)-8H-imidazo [4,5-d]thiazolo [5,4-b]pyridin-2-yl)phenyl)ethyl)-2-([^3H]methylsulfonyl)benzamide) (preparation described below) and 80 μg/mL Copper His-Tag scintillation proximity assay beads (Perkin Elmer, Catalog # RPNQ0095) in 50 mM HEPES, pH 7.5, containing 100 μg/mL bovine serum albumin and 5% DMSO were incubated for 30 minutes at room temperature. The amount of radiolabeled probe (preparation described below) bound to Tyk2 was then quantified by scintillation counting, and the inhibition by the test compound calculated by comparison to wells either with no inhibitor (0% inhibition) or without Tyk2 (100% inhibition). The EC50 value is defined as the concentration of test compound required to inhibit radiolabeled probe binding by 50%. Probe Displacement Assay (HTRF Format)

[2] = system: IL-23 stimulated Kit225 T cells (STAT-dependent luciferase reporter); assay: Kit225 T cell assay, IL-23 stimulated STAT-dependent luciferase reporter; format: cell-based; conditions: 20 ng/mL human recombinant IL-23, 5-6 hours
Description: (§1) Kit225 T cells with a stably-integrated STAT-dependent luciferase reporter were plated in RPMI (Gibco) containing 10% heat-inactivated FBS (Gibco) and 100 U/mL PenStrep (Gibco). The cells were then stimulated with either 20 ng/mL human recombinant IL-23 or 200 U/mL human recombinant IFNα (PBL InterferonSource) for 5-6 hours. Luciferase expression was measured using the STEADY-GLO® Luciferase Assay System (Promega) according to the manufacturer's instructions. Inhibition data were calculated by comparison to no inhibitor control wells for 0% inhibition and non-stimulated control wells for 100% inhibition. Dose response curves were generated to determine the concentration required to inhibit 50% of cellular response (IC50) as derived by non-linear regression analysis.

[3] = system: IFNα stimulated Kit225 T cells (STAT-dependent luciferase reporter); assay: Kit225 T cell assay, IFNα stimulated STAT-dependent luciferase reporter; format: cell-based; conditions: 200 U/mL human recombinant IFNα, 5-6 hours
Description: as §1

T1 sequence (P29597 with tags, fused parts or gaps): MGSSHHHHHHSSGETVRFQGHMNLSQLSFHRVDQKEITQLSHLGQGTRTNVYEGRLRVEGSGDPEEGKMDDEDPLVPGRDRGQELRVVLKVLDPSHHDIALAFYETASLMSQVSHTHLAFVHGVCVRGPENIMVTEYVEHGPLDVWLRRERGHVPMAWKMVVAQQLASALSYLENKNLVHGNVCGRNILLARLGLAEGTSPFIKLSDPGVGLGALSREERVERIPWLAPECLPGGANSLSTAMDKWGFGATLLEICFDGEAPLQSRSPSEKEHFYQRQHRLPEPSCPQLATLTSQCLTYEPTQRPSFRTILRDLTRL

Row | SMILES | EC50 [1] [nM] | IC50 [2] [nM] | IC50 [3] [nM]
1 | Cc1nc2c(Nc3ccccc3S(C)(=O)=O)cc(Nc3ccc(C(=O)N4CCOCC4)cn3)nc2[nH]1 [Example 8, 7-N-(2-methanesulfonylphenyl)-2-methyl-5-N-[5-(morpholine-4-carbonyl)pyridin-2-yl]-3H-imidazo[4,5-b]pyridine-5,7-diamine] | 21 | 1950 | 1470
2 | Cc1nc2c(Nc3ccccc3C(N)=O)cc(Nc3ccc(F)cn3)nc2[nH]1 [Example 32, 2-({5-[(5-fluoropyridin-2-yl)amino]-2-methyl-3H-imidazo[4,5-b]pyridin-7-yl}amino)benzamide] | 167 | 3310 | 1160
3 | COc1ccccc1Nc1cc(Nc2cc(C)nc(C)n2)nc2[nH]c(C)nc12 [Example 36, 5-N-(2,6-dimethylpyrimidin-4-yl)-7-N-(2-methoxyphenyl)-2-methyl-3H-imidazo[4,5-b]pyridine-5,7-diamine] | 291 | 824 | 1520
4 | CCc1nc2c(Nc3ccccc3S(C)(=O)=O)cc(Nc3ccc(F)cn3)nc2[nH]1 [Example 51, 2-ethyl-5-N-(5-fluoropyridin-2-yl)-7-N-(2-methanesulfonylphenyl)-3H-imidazo[4,5-b]pyridine-5,7-diamine] | 158 | 1470 | 1420
5 | Cc1cc(Nc2cc(Nc3ccccc3C(N)=O)c3nc(C)[nH]c3n2)nc(C)n1 [Example 33, 2-({5-[(2,6-dimethylpyrimidin-4-yl)amino]-2-methyl-3H-imidazo[4,5-b]pyridin-7-yl}amino)benzamide] | – | 1960 | 1220
6 | COc1c(Nc2cc(Nc3ccc(F)cn3)nc3[nH]c(C)nc23)cccc1-c1ncn(C)n1 [Example 40, 5-N-(5-fluoropyridin-2-yl)-7-N-[2-methoxy-3-(1-methyl-1H-1,2,4-triazol-3-yl)phenyl]-2-methyl-3H-imidazo[4,5-b]pyridine-5,7-diamine] | 38 | 738 | 1240
7 | Cc1nc2c(Nc3ccccc3S(C)(=O)=O)nc(Nc3ccc(F)cc3)nc2[nH]1 [Example 1, N2-(4-fluorophenyl)-8-methyl-N6-(2-(methylsulfonyl)phenyl)-9H-purine-2,6-diamine] | 270 | 1410 | 4260
8 | COc1ccccc1Nc1cc(Nc2ccc(N3CCOCC3)cn2)nc2[nH]c(C)nc12 [Example 37, 7-N-(2-methoxyphenyl)-2-methyl-5-N-[5-(morpholin-4-yl)pyridin-2-yl]-3H-imidazo[4,5-b]pyridine-5,7-diamine] | 432 | 3880 | 1040
9 | Cc1nc2c(Nc3ccccc3S(C)(=O)=O)cc(Nc3ccc(N4CCC(C)(O)CC4)cn3)nc2[nH]1 [Example 9, 1-[6-({7-[(2-methanesulfonylphenyl)amino]-2-methyl-3H-imidazo[4,5-b]pyridin-5-yl}amino)pyridin-3-yl]-4-methylpiperidin-4-ol] | 17 | 854 | 564
10 | Cc1nc2c(Nc3ccccc3S(C)(=O)=O)cc(Nc3ccc(C(N)=O)cn3)nc2[nH]1 [Example 14, 6-({7-[(2-methanesulfonylphenyl)amino]-2-methyl-3H-imidazo[4,5-b]pyridin-5-yl}amino)pyridine-3-carboxamide] | 11 | 7860 | 6080
11 | Cc1nc2c(Nc3ccccc3C(N)=O)cc(Nc3ccc(N4CCOCC4)cn3)nc2[nH]1 [Example 34, 2-[(2-methyl-5-{[5-(morpholin-4-yl)pyridin-2-yl]amino}-3H-imidazo[4,5-b]pyridin-7-yl)amino]benzamide] | – | 4380 | 5120

Stronger by IC50 [2], values ahead:

Row | EC50 [1] [nM] | IC50 [2] [nM] | IC50 [3] [nM] | SMILES
12 | 58 | 579 | 503 | Cc1nc2c(Nc3ccccc3S(C)(=O)=O)cc(Nc3ccn(C(C)C)n3)nc2[nH]1 [Example 30, 7-N-(2-methanesulfonylphenyl)-2-methyl-5-N-[1-(propan-2-yl)-1H-pyrazol-3-yl]-3H-imidazo[4,5-b]pyridine-5,7-diamine]
13 | 12 | 235 | 105 | Cc1nc2c(Nc3ccccc3S(C)(=O)=O)cc(Nc3cc(C)c(F)cn3)nc2[nH]1 [Example 31, 5-N-(5-fluoro-4-methylpyridin-2-yl)-7-N-(2-methanesulfonylphenyl)-2-methyl-3H-imidazo[4,5-b]pyridine-5,7-diamine]
14 | 5 | 81 | 44 | Cc1nc2c(Nc3ccccc3S(C)(=O)=O)cc(Nc3cccc(C(F)(F)F)n3)nc2[nH]1 [Example 23, 7-N-(2-methanesulfonylphenyl)-2-methyl-5-N-[6-(trifluoromethyl)pyridin-2-yl]-3H-imidazo[4,5-b]pyridine-5,7-diamine]
15 | 11 | 190 | 161 | Cc1nc2c(Nc3ccccc3S(C)(=O)=O)cc(Nc3ccc(N4CCOCC4)cn3)nc2[nH]1 [Example 5, 7-N-(2-methanesulfonylphenyl)-2-methyl-5-N-[5-(morpholin-4-yl)pyridin-2-yl]-3H-imidazo[4,5-b]pyridine-5,7-diamine]
16 | 15 | 140 | 119 | Cc1nc2c(Nc3ccccc3S(C)(=O)=O)cc(Nc3cc(C)n(C)n3)nc2[nH]1 [Example 26, 5-N-(1,5-dimethyl-1H-pyrazol-3-yl)-7-N-(2-methanesulfonylphenyl)-2-methyl-3H-imidazo[4,5-b]pyridine-5,7-diamine]
17 | 14 | 90 | 128 | COc1ccc(Nc2cc(Nc3ccccc3S(C)(=O)=O)c3nc(C)[nH]c3n2)nc1 [Example 16, 7-N-(2-methanesulfonylphenyl)-5-N-(5-methoxypyridin-2-yl)-2-methyl-3H-imidazo[4,5-b]pyridine-5,7-diamine]
18 | 31 | 183 | 207 | Cc1cnc(Nc2cc(Nc3ccccc3S(C)(=O)=O)c3nc(C)[nH]c3n2)cn1 [Example 15, 7-N-(2-methanesulfonylphenyl)-2-methyl-5-N-(5-methylpyrazin-2-yl)-3H-imidazo[4,5-b]pyridine-5,7-diamine]
19 | 27 | 261 | 201 | Cc1ccc(Nc2cc(Nc3ccccc3S(C)(=O)=O)c3nc(C)[nH]c3n2)nc1 [Example 21, 7-N-(2-methanesulfonylphenyl)-2-methyl-5-N-(5-methylpyridin-2-yl)-3H-imidazo[4,5-b]pyridine-5,7-diamine]
20 | 7 | 205 | 126 | Cc1nc2c(Nc3ccccc3S(C)(=O)=O)cc(Nc3ccc(C#N)c(C)n3)nc2[nH]1 [Example 25, 6-({7-[(2-methanesulfonylphenyl)amino]-2-methyl-3H-imidazo[4,5-b]pyridin-5-yl}amino)-2-methylpyridine-3-carbonitrile]
21 | 15 | 104 | 128 | Cc1nc2c(Nc3ccccc3S(C)(=O)=O)cc(Nc3cc(F)ccn3)nc2[nH]1 [Example 17, 5-N-(4-fluoropyridin-2-yl)-7-N-(2-methanesulfonylphenyl)-2-methyl-3H-imidazo[4,5-b]pyridine-5,7-diamine]
22 | 53 | 407 | 401 | Cc1ccnc(Nc2cc(Nc3ccccc3S(C)(=O)=O)c3nc(C)[nH]c3n2)c1 [Example 20, 7-N-(2-methanesulfonylphenyl)-2-methyl-5-N-(4-methylpyridin-2-yl)-3H-imidazo[4,5-b]pyridine-5,7-diamine]
23 | 9 | 70 | 53 | Cc1nc2c(Nc3ccccc3S(C)(=O)=O)cc(Nc3cc(C)c(C#N)c(C)n3)nc2[nH]1 [Example 28, 6-({7-[(2-methanesulfonylphenyl)amino]-2-methyl-3H-imidazo[4,5-b]pyridin-5-yl}amino)-2,4-dimethylpyridine-3-carbonitrile]
24 | 30 | 357 | 818 | Cc1nc2c(Nc3ccccc3S(C)(=O)=O)cc(Nc3cnc(C(F)(F)F)cn3)nc2[nH]1 [Example 12, 7-N-(2-methanesulfonylphenyl)-2-methyl-5-N-[5-(trifluoromethyl)pyrazin-2-yl]-3H-imidazo[4,5-b]pyridine-5,7-diamine]
25 | – | 370 | 264 | Cc1nc2c(Nc3ccccc3S(C)(=O)=O)cc(Nc3ccn(C)n3)nc2[nH]1 [Example 22, 7-N-(2-methanesulfonylphenyl)-2-methyl-5-N-(1-methyl-1H-pyrazol-3-yl)-3H-imidazo[4,5-b]pyridine-5,7-diamine]
